Data: patent US8557829B2, “Use of allopurinol for the treatment of palmar plantar erythrodysesthesia” (Nobera Pharma, S.L., priority 2006, dated 2013)
Each block holds one compound with its values, some of them ahead of it.

Legend:
[1] = system: Patients suffering from colon cancer or breast cancer; experiment: Example 3: appearance of PPE under standard chemotherapy; format: in vivo, human
Description: (§1) Patients suffering from colon cancer or breast cancer were treated from January 2005 up to March 2007 with the following standard chemotherapy: • AIO protocol: high dose infusion 5FU24H+leucovorin • FOLFOX 4 protocol: day 1: oxaliplatin, 85 mg/m2, and leucovorin, 200 mg/m2, concurrently i.v., then 5-FU, 400 mg/m2 i.v. bolus followed by 600 mg/m2 continuous i.v.; day 2: leucovorin, 200 mg/m2 i.v., then 5-FU, 400 mg/m2 i.v. bolus, followed by 600 mg/m2 continuous i.v.; repeated every 2 weeks. • Oral capecitabine.
Palmar plantar erythrodysesthesia (PPE) appeared in 30% of the patients treated with 5-FU and in 66% of those treated with capecitabine.

cancer patients = settings: colon / colorectal cancer, versus fluorouracil+leucovorin; cited from earlier work
[2] = system: Patients with colorectal carcinoma; experiment: Example 2: treatment of palmar plantar erythrodysesthesia with the allopurinol cream; format: in vivo, human
Description: Patients with colorectal carcinoma were administered chemotherapy (adjuvant or palliative) following the usual protocols. As soon as the first symptoms of palmar planar erythrodysesthesia appeared after starting chemotherapy, the patients were administered the cream prepared in example 1.
The characteristics of the patients treated with the cream and the chemotherapeutic regimen that they were administered were as follow:
Patients with advanced or metastatic colorectal cancer: 8
Patients with resected stage III colon cancer: 2
• 5FU+LV bolus (Mayo protocol): 1 patient • 5FU+LV infusional (AIO protocol): 7 patients • Capecitabine monotherapy: 2 patients
The cream was applied 5 times per day, to the palms and soles, as long as the chemotherapy was applied. The frequency was reduced in between cycles and increased shortly before and during chemotherapy administration.

[3] = cited from earlier work
[4] = system: Patients suffering from colon cancer or breast cancer; experiment: Example 3: response of PPE to allopurinol cream treatment; format: in vivo, human
Description: as §1
The cream comprising allopurinol as prepared in example 1 was topically applied by the patients 4-5 times a day to the hands and feet. In case of no response to this treatment and persistence of PPE symptoms, the dosage of chemotherapy was reduced and some cases interrupted.

[5] = biological target: T1, deoxythymidine phosphorylase (thymidine phosphorylase, TP) (Homo sapiens, UniProt P19971); settings: Gallo et al. J Biological Chemistry 1968; cited from earlier work
T1 sequence (P19971 11-482): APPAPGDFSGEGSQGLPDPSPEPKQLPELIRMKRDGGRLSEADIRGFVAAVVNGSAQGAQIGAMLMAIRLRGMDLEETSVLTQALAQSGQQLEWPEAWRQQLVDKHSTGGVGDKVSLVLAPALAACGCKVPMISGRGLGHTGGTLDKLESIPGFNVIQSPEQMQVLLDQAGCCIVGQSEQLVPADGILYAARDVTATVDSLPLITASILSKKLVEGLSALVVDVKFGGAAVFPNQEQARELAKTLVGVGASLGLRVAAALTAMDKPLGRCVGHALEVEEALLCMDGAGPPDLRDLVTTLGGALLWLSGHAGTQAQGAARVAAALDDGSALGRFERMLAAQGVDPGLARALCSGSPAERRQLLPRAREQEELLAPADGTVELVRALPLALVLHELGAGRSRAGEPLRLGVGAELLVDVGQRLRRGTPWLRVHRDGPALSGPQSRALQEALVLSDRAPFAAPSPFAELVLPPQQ

uridine phosphorylase = uridine phosphorylase (Homo sapiens, UniProt Q16831); settings: Gallo et al. J Biological Chemistry 1968; cited from earlier work
[6] = standard chemotherapy, before allopurinol treatment
[7] = 2 PPE patients on FOLFOX-4 chemotherapy
[8] = 3% cream 4-5 times a day to hands and feet
[9] = 5 PPE patients on AIO chemotherapy
[10] = 8 PPE patients on Capecitabine chemotherapy
[11] = all 15 PPE patients, 3% cream 4-5 times a day
[12] = all 15 PPE patients, 3% cream 4-5 times a day, listed as allopiirinol

Sequence of uridine phosphorylase (Q16831 whole entry): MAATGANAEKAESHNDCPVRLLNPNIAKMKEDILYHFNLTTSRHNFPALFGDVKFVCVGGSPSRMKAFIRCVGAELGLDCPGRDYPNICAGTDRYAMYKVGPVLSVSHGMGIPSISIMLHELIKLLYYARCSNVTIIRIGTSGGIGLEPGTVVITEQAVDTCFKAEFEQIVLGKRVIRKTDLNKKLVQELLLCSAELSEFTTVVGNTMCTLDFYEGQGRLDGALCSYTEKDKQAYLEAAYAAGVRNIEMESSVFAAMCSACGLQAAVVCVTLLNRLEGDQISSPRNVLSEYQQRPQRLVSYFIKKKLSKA

PPE symptoms, % of patients [1, 6]: 30%
Compound: O=c1[nH]cc(F)c(=O)[nH]1 [5-FU, Fluorouracil]

Cumulative dosis with capecitabine until apprearauce of PPE, Median ([1]; patients who developed PPE): 81.000 mg
PPE symptoms, % of patients [1, 6]: 66%
PPE symptoms, n (of patients treated) [1, 6]: 8(12)
PPE symptoms, % of patients ([1]; standard chemotherapy, before allopurinol treatment, listed as capecitabine): 66%
Compound: CCCCCOC(=O)Nc1nc(=O)n([C@@H]2O[C@H](C)[C@@H](O)[C@H]2O)cc1F [Capecitabine]
incidence of hand-foot syndrome (PPE), all grades (cancer patients): 49-60%
incidence of hand-foot syndrome (PPE), severe grades (cancer patients): 17%

Compound: Oc1ncnc2[nH]ncc12 [allopurinol, 1,5-dihydro-4H-pyrazolo[3,4-d]pyrimidin-4-one]
symptoms of PPE following the topical treatment ([2]; 10 patients on 5FU+LV (Mayo or AIO) or capecitabine, 3% cream of example 1, 5 times per day to palms and soles): the symptoms of PPE disappeared
completion of chemotherapy ([2]; 10 patients on 5FU+LV or capecitabine, 3% cream, 5 times per day to palms and soles): completed without any dose reduction or delay in the treatment due to PPE
appearance of PPE ([2]; topical application to cancer patients being treated with chemotherapy (summary statement)): completely avoided the appearance of PPE
solubility in chloroform and in ether [3]: practically insoluble
solubility in dilute solutions of alkali hydroxides [3]: dissolves
solubility in water and alcohol [3]: very slightly soluble
NR: no response, % [4, 7]: 50%
PR: Partial remission, % [4, 7]: 50%
TR: total response, % [4, 7]: 50%
patients that had developed PPE in whom chemotherapy was completed as planned [4, 8]: 86%
toxic effects associated to the topical treatment [4, 8]: No toxics effects
CR: complete remission, % [4, 9]: 80%
NR: no response, % [4, 9]: 0%
PR: Partial remission, % [4, 9]: 20%
TR: total response, % [4, 9]: 100%
CR: complete remission, % [4, 10]: 62.5%^
NR: no response, % [4, 10]: 12.5%
PR: Partial remission, % [4, 10]: 25%
TR: total response, % [4, 10]: 87%
quality of life ([4]; PPE patients treated with the 3% cream): significantly improved
CR: complete remission, % [4, 11]: 66%
NR: no response, % [4, 11]: 13.3%^
PR: Partial remission, % [4, 11]: 20%
TR: total response, % ([4]; all 15 PPE patients, 3% cream 4-5 times a day to hands and feet): 86%
TR: total response, % ([4]; all 15 PPE patients, 3% cream 4-5 times a day to hands and feet, listed as allopiirinol): 86.6%^
CR: complete remission, % [4, 12]: 66.6%^
PR: Partial remission, % [4, 12]: 20.0%^
inhibition of thymidine phosphorylase (TP) [5]: inhibits TP
inhibition of uridine phosphorylase (uridine phosphorylase): not uridine phosphorylase
